PubChem BioAssay (NCI)
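Exposure lasted 48 hours, with cells grown in 96-well plates and compounds tested at five concentrations. Definition used: TGI = concentration required for complete inhibition of growth.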

Legend:
Test in all cases: NCI tumour cell line growth inhibition, 48 h
[1] = test system: MALME-3M melanoma
[2] = test system: CCRF-CEM leukemia
[3] = test system: TK-10 renal
[4] = test system: HCC-2998 colon
[5] = test system: SF-268 CNS
[6] = test system: PC-3 prostate
[7] = test system: SN12C renal
[8] = test system: NCI/ADR-RES ovarian
[9] = test system: MCF7 breast
[10] = test system: NCI-H522 lung
[11] = test system: BT-549 breast
[12] = test system: UACC-62 melanoma
[13] = test system: T-47D breast
[14] = test system: A549 NSCLC
[15] = test system: SW-620 colon
[16] = test system: HS 578T breast
[17] = test system: LOX IMVI melanoma
[18] = test system: MDA-MB-435
[19] = test system: OVCAR-4 ovarian
[20] = test system: DU-145 prostate
[21] = test system: CAKI-1 renal
[22] = test system: NCI-H460 lung
[23] = test system: OVCAR-3 ovarian
[24] = test system: MDA-N
[25] = test system: IGROV1 ovarian
[26] = test system: UO-31 renal
[27] = test system: MOLT-4 leukemia
[28] = test system: SF-539 CNS
[29] = test system: EKVX NSCLC
[30] = test system: 786-0 renal
[31] = test system: HCT-116 colon
[32] = test system: SF-295 CNS
[33] = test system: SK-MEL-28 melanoma
[34] = test system: RPMI-8226 leukemia
[35] = test system: M14 melanoma
[36] = test system: SK-MEL-2 melanoma
[37] = test system: RXF 393 renal
[38] = test system: SK-OV-3 ovarian
[39] = test system: KM12 colon
[40] = test system: HT29 colon
[41] = test system: HL-60(TB) leukemia
[42] = test system: A498 renal
[43] = test system: U251 CNS
[44] = test system: SNB-75 CNS
[45] = test system: COLO 205 colon
[46] = test system: HCT-15 colon
[47] = test system: HOP-62 NSCLC
[48] = test system: K-562 leukemia
[49] = test system: NCI-H23 lung
[50] = test system: HOP-92 NSCLC
[51] = test system: ACHN renal
[52] = test system: UACC-257 melanoma
[53] = test system: SK-MEL-5 melanoma
[54] = test system: SR leukemia
[55] = test system: OVCAR-8 ovarian
[56] = test system: MDA-MB-231 breast
[57] = test system: NCI-H226 lung
[58] = test system: SNB-19 CNS
[59] = test system: OVCAR-5 ovarian

SMILES: CC(=O)OCC(=O)O[C@@H]1[C@H]2[C@@H](OC(=O)c3ccccc3)[C@@H](C)C[C@]2(O)[C@H](OC(C)=O)[C@@]2(C)C(OC(C)=O)[C@]1(OC(C)=O)C[C@H]1C(=O)C(C)(C)C[C@@H]12 (some centres undefined)
- TGI [1]: > 50 µM
- TGI [2]: > 50 µM
- TGI [3]: > 50 µM
- TGI [4]: > 50 µM
- TGI [5]: > 50 µM
- TGI [6]: > 50 µM
- TGI [7]: > 50 µM
- TGI [8]: > 50 µM
- TGI [9]: > 50 µM
- TGI [10]: > 50 µM
- TGI [11]: > 50 µM
- TGI [12]: > 50 µM
- TGI [13]: > 50 µM
- TGI [14]: > 50 µM
- TGI [15]: > 50 µM
- TGI [16]: > 50 µM
- TGI [17]: > 50 µM
- TGI [18]: > 50 µM
- TGI [19]: > 50 µM
- TGI [20]: > 50 µM
- TGI [21]: > 50 µM
- TGI [22]: > 50 µM
- TGI [23]: > 50 µM
- TGI [24]: > 50 µM
- TGI [25]: > 50 µM
- TGI [26]: > 50 µM
- TGI [27]: > 50 µM
- TGI [28]: > 50 µM
- TGI [29]: > 50 µM
- TGI [30]: > 50 µM
- TGI [31]: > 50 µM
- TGI [32]: > 50 µM
- TGI [33]: > 50 µM
- TGI [34]: > 50 µM
- TGI [35]: > 50 µM
- TGI [36]: > 50 µM
- TGI [37]: > 50 µM
- TGI [38]: > 50 µM
- TGI [39]: > 50 µM
- TGI [40]: > 50 µM
- TGI [41]: > 50 µM
- TGI [42]: > 50 µM
- TGI [43]: > 50 µM
- TGI [44]: > 50 µM
- TGI [45]: > 50 µM
- TGI [46]: > 50 µM
- TGI [47]: > 50 µM
- TGI [48]: > 50 µM
- TGI [49]: > 50 µM
- TGI [50]: > 50 µM
- TGI [51]: > 50 µM
- TGI [52]: > 50 µM
- TGI [53]: > 50 µM
- TGI [54]: > 50 µM
- TGI [55]: > 50 µM
- TGI [56]: > 50 µM
- TGI [57]: > 50 µM
- TGI [58]: > 50 µM
- TGI [59]: > 50 µM

SMILES: N[C@H](C(=O)O)[C@@H]1CC(Br)=NO1
- TGI [1]: > 100 µM
- TGI [2]: > 100 µM
- TGI [3]: > 100 µM
- TGI [4]: > 100 µM
- TGI [5]: > 100 µM
- TGI [6]: > 100 µM
- TGI [7]: > 100 µM
- TGI [8]: > 100 µM
- TGI [9]: > 100 µM
- TGI [10]: > 100 µM
- TGI [11]: > 100 µM
- TGI [12]: > 100 µM
- TGI [13]: > 100 µM
- TGI [14]: > 100 µM
- TGI [15]: > 100 µM
- TGI [16]: > 100 µM
- TGI [17]: > 100 µM
- TGI [18]: > 100 µM
- TGI [19]: > 100 µM
- TGI [20]: > 100 µM
- TGI [21]: > 100 µM
- TGI [22]: > 100 µM
- TGI [23]: > 100 µM
- TGI [24]: > 100 µM
- TGI [25]: > 100 µM
- TGI [26]: > 100 µM
- TGI [27]: > 100 µM
- TGI [28]: > 100 µM
- TGI [29]: > 100 µM
- TGI [30]: > 100 µM
- TGI [31]: > 100 µM
- TGI [32]: > 100 µM
- TGI [33]: > 100 µM
- TGI [35]: > 100 µM
- TGI [36]: > 100 µM
- TGI [37]: > 100 µM
- TGI [38]: > 100 µM
- TGI [39]: > 100 µM
- TGI [40]: > 100 µM
- TGI [41]: > 100 µM
- TGI [42]: > 100 µM
- TGI [43]: > 100 µM
- TGI [44]: > 100 µM
- TGI [45]: > 100 µM
- TGI [46]: > 100 µM
- TGI [47]: > 100 µM
- TGI [48]: > 100 µM
- TGI [49]: > 100 µM
- TGI [50]: > 100 µM
- TGI [51]: > 100 µM
- TGI [52]: > 100 µM
- TGI [53]: > 100 µM
- TGI [54]: > 100 µM
- TGI [55]: > 100 µM
- TGI [56]: > 100 µM
- TGI [57]: > 100 µM
- TGI [58]: > 100 µM
- TGI [59]: > 100 µM

SMILES: CCC(=O)C(CCN1CCC2(CCCc3ccccc32)CC1)(c1ccccc1)c1ccccc1
- TGI [1]: 3.76 µM
- TGI [2]: > 100 µM
- TGI [3]: 11 µM
- TGI [4]: 7.44 µM
- TGI [5]: 16.4 µM
- TGI [6]: 8.87 µM
- TGI [7]: 10.2 µM
- TGI [8]: 14.3 µM
- TGI [9]: 10.9 µM
- TGI [10]: 7.14 µM
- TGI [11]: 3.36 µM
- TGI [12]: 10.7 µM
- TGI [13]: 10.2 µM
- TGI [14]: 15.6 µM
- TGI [15]: 12.9 µM
- TGI [16]: 7.02 µM
- TGI [17]: 2.16 µM
- TGI [18]: 12.5 µM
- TGI [19]: 18.7 µM
- TGI [20]: 11.6 µM
- TGI [21]: 14.5 µM
- TGI [22]: 9.4 µM
- TGI [23]: 6.67 µM
- TGI [24]: 10.9 µM
- TGI [25]: 10.3 µM
- TGI [26]: 8.66 µM
- TGI [28]: 7.3 µM
- TGI [29]: 17.6 µM
- TGI [30]: 6.09 µM
- TGI [31]: 3.22 µM
- TGI [32]: 4.9 µM
- TGI [33]: 14 µM
- TGI [34]: 2.35 µM
- TGI [35]: 4.56 µM
- TGI [36]: 4.34 µM
- TGI [37]: 6.18 µM
- TGI [38]: 18.2 µM
- TGI [39]: 4.64 µM
- TGI [40]: 6.01 µM
- TGI [41]: 5.12 µM
- TGI [42]: 6.11 µM
- TGI [43]: 14 µM
- TGI [44]: > 27.2 µM
- TGI [45]: 2.91 µM
- TGI [46]: 15.1 µM
- TGI [47]: 8.91 µM
- TGI [49]: 5.45 µM
- TGI [50]: 4.03 µM
- TGI [51]: 11.3 µM
- TGI [52]: 5.51 µM
- TGI [53]: 2.9 µM
- TGI [54]: 5.9 µM
- TGI [55]: 14 µM
- TGI [56]: 5.78 µM
- TGI [57]: 6.58 µM
- TGI [58]: 20.6 µM
- TGI [59]: 14.7 µM
